# Measured values as given in patent US20080170993A1, “THYMIDINE ANALOGS FOR IMAGING” (priority 2006, published 2008).
# Molecular target: T1, recombinant thymidine kinase 1 (TK-1) (Homo sapiens, UniProt P04183)
# T1 sequence (P04183 1-234): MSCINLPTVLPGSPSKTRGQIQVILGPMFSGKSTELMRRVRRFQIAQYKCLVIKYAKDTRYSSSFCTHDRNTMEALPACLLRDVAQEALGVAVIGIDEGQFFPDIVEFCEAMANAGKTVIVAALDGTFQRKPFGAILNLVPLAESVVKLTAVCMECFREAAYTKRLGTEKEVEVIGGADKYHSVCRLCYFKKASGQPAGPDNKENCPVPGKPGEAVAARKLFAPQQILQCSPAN
# Settings: cold 19F analogues; 100 μM ATP+P-32-ATP, 10-60 ng thymidine kinase; TLC, phosphoimager; thymidine 100%
row,In vitro-Phosphorylation,SMILES
1,36% ± 6.5%,Cc1cn([C@H]2C[C@H](O)[C@@H](CO)O2)c(=O)n(CCCCCCCNC(=O)c2ccc(F)c(C#N)c2)c1=O
2,12% ± 2.8%,Cc1cn([C@H]2C[C@H](O)[C@@H](CO)O2)c(=O)n(CCCCN(C)C(=O)c2ccc(F)c(C#N)c2)c1=O
3,17% ± 10.2%,Cc1cn([C@H]2C[C@H](O)[C@@H](CO)O2)c(=O)n(CCCCCCNC(=O)CNC(=O)C(CF)NS(=O)(=O)c2c(C(C)C)cc(C(C)C)cc2C(C)C)c1=O (some centres unmarked)
4,34% ± 18.6%,Cc1cn([C@H]2C[C@H](O)[C@@H](CO)O2)c(=O)n(Cc2ccc(F)cc2)c1=O
5,49% ± 9.9%,N#Cc1cc(C(=O)NCCCCCCn2c(=O)c(C(F)(F)F)cn([C@H]3C[C@H](O)[C@@H](CO)O3)c2=O)ccc1F
6,23% ± 8.0%,Cc1cn([C@H]2C[C@H](O)[C@@H](CO)O2)c(=O)n(CC#CCF)c1=O
7,26% ± 4.0%,Cc1cn([C@H]2C[C@H](O)[C@@H](CO)S2)c(=O)n(CCCCCCF)c1=O
8,70% ± 9.3%,Cc1cn([C@H]2C[C@H](O)[C@@H](CO)S2)c(=O)[nH]c1=O
9,58% ± 11.9%,"Cc1cn([C@H]2C[C@H](F)[C@@H](CO)O2)c(=O)[nH]c1=O [FLT, 3′-[F-18]fluoro-3′-deoxythymidine, reference compound]"
10,12% ± 1.1%,Cc1cn([C@H]2C[C@H](O)[C@@H](CO)O2)c(=O)n(CCCNC(=O)c2ccc(F)c(C(F)(F)F)c2)c1=O
11,19% ± 3.7%,Cc1cn([C@H]2C[C@H](O)[C@@H](CO)O2)c(=O)n(CCNC(=O)CNC(=O)C(CF)NS(=O)(=O)c2c(C(C)C)cc(C(C)C)cc2C(C)C)c1=O (some centres unmarked)

row,SMILES,In vitro-Phosphorylation
1,Cc1cn([C@H]2C[C@H](O)[C@@H](CO)O2)c(=O)n(CCCNC(=O)CCc2cccc([Si](F)(C(C)C)C(C)C)c2)c1=O,15% ± 6.1%
2,Cc1cn([C@H]2C[C@H](O)[C@@H](CO)O2)c(=O)n(CCCCCCNC(=O)c2ccc(F)c(C#N)c2)c1=O [TD-8],41% ± 9.5%
3,Cc1cn([C@H]2C[C@H](O)[C@@H](CO)O2)c(=O)n(CCCCF)c1=O [TD-1],13% ± 5.4%
4,Cc1cn([C@H]2C[C@H](O)[C@@H](CO)O2)c(=O)n(CCCCCCF)c1=O [TD-2],30% ± 3.7%
5,Cc1cn([C@H]2C[C@H](O)[C@@H](CO)O2)c(=O)n(CCCNC(=O)Cc2ccc([Si](F)(C(C)C)C(C)C)cc2)c1=O,17% ± 1.5%
6,Cc1cn([C@H]2C[C@H](O)[C@@H](CO)O2)c(=O)n(CCCCNC(=O)c2ccc(F)c(C#N)c2)c1=O [TD-9],21% ± 4.6%
